According to patent publication US20250333424A1, “ANTIVIRAL COMPOUNDS” (Gilead Sciences, Inc., priority 2024, published 2025):

Assays:
[1] = tested on: monocytic THP1 cells infected with HIV VSV-G pseudotyped GFP-NEF reporter virus; assay: cells; type: cell-based; details: Human immunodeficiency virus 1, THP-1, 24 h
[2] = tested on: CD4 cells, isolated from healthy donor PMBCs, infected with HIV VSV-G pseudotyped GFP-GAG reporter virus; assay: tissue or blood; type: cell-based; details: Homo sapiens, 72 h

Structure (SMILES)	EC50 [1]	EC50 [2]
Cc1cc(/C=C/C#N)cc(C)c1Nc1nc(NC23CC(C#N)(C2)C3)nc2scnc12 [Compound 23, (E)-3-((7-((4-(2-cyanovinyl)-2,6-dimethylphenyl)amino)thiazolo[5,4-d]pyrimidin-5-yl)amino)bicyclo[1.1.1]pentane-1-carbonitrile]	31.7 nM	17 nM
Cc1cc(/C=C/C#N)cc(C)c1Oc1nc(NC23CC(C#N)(C2)C3)nc2nn(C)cc12 [Compound 120, 3-[[4-[4-[(E)-2-cyanovinyl]-2,6-dimethyl-phenoxy]-2-methyl-pyrazolo[3,4-d]pyrimidin-6-yl]amino]bicyclo[1.1.1]pentane-1-carbonitrile]	21.1 nM	22.9 nM
Cc1cc(/C=C/C#N)cc(C)c1Oc1nc(NC23CC(C#N)(C2)C3)nc2cnn(C)c12 [Compound 122]	54 nM	47.3 nM
Cc1cc(/C=C/C#N)cc(C)c1Oc1nc(NC23CC(C#N)(C2)C3)nc2onc(C)c12 [Compound 142, (E)-3-((4-(4-(2-cyanovinyl)-2,6-dimethylphenoxy)-3-methylisoxazolo[5,4-d]pyrimidin-6-yl)amino)bicyclo[1.1.1]pentane-1-carbonitrile]	24 nM	17.6 nM
Cc1cc(/C=C/C#N)cc(C)c1Oc1nc(NC23CC(C#N)(C2)C3)nc2nc(C)n(C)c12 [Compound 97, (E)-3-((6-(4-(2-cyanovinyl)-2,6-dimethylphenoxy)-7,8-dimethyl-7H-purin-2-yl)amino)bicyclo[1.1.1]pentane-1-carbonitrile]	32.5 nM	51.1 nM
Cc1cc(/C=C/C#N)cc(C)c1Oc1nc(NC23CC(C#N)(C2)C3)nc2[nH]nc(C)c12 [Compound 119, 3-[[4-[4-[(E)-2-cyanovinyl]-2,6-dimethyl-phenoxy]-3-methyl-1H-pyrazolo[3,4-d]pyrimidin-6-yl]amino]bicyclo[11.1.1]pentane-1-carbonitrile]	19.3 nM	16.9 nM
COc1ccc(Cn2cnc3c(Oc4c(C)cc(/C=C/C#N)cc4C)nc(NC45CC(C#N)(C4)C5)nc32)cc1 [Compound 42, (E)-3-((6-(4-(2-cyanovinyl)-2,6-dimethylphenoxy)-9-(4-methoxybenzyl)-9H-purin-2-yl)amino)bicyclo[1.1.1]pentane-1-carbonitrile]	518 nM	894 nM
Cc1cc(/C=C/C#N)cc(C)c1Oc1nc(NC23CC(C#N)(C2)C3)nc2nc(C3CC3)[nH]c12 [Compound 49, (E)-3-((6-(4-(2-cyanovinyl)-2,6-dimethylphenoxy)-8-cyclopropyl-7H-purin-2-yl)amino)bicyclo[1.1.1]pentane-1-carbonitrile]	110 nM	166 nM
